Values after ≈ are worked out from the molar mass of the structure shown.
What follows are compounds tested on C. albicans wild-type (assay: microbe, parasite or virus in culture). Conditions: Candida albicans, 48 h, read-out: MIC.
Parameters: species or system whole yeast cells; macro tube broth dilution MIC in YEPD at 30 C, visual clearness of medium
Protocol: (§1) Standard YEPD (Yeast Extract, Peptone, Dextrose) ([Sherman, 1990]), YEPD+S (YEPD with 1.2M sorbitol), YES (Yeast Extract, Dextrose and Supplements of Adenine, Histidine, Leucine, Uracil and Lysine) ([Alfa et al., 1993]) and YES+S (YES with 1.2 M sorbitol) ([Ribas et al., 1991]; [Ishiguro et al., 1997]), media were used for determination of MIC values of the tested compounds. A stock solution of 10 mg/ml of each tested compounds was prepared in DMSO and serial dilutions in DMSO were prepared. The final concentration of DMSO was 2% in the YEPD medium. […] The serial dilutions of compounds were dispensed into test tubes with 1 ml of YEPD or YEPD+S to make final concentrations of 200, 100, 50, 25, 12.5, 6.26, 3.125, 1.6, 0.8 and 0.4 μg/ml. The tested yeast strains were previously grown in YEPD, YEPD+S, YES or YES+S agar plates at 30°C for 48 h. For inoculation of YEPD or YEPD+S macro test tubes a suspension of tested fungus was produced with 10^5 cfu/ml (cfu - colony forming unit). 10 μl of suspension was used for inoculation of each tube. After 48 h incubation at 30°C the tubes were checked. The MIC value is the lowest concentration of the tested compound that could inhibit the fungal growth and the medium remained clear. From each tube 10 μl culture was plated on YEPD agar medium to check the contamination. The MIC tests were carried out in three parallels. The screening of the first generation of isochromanones was carried out in YEPD and YEPD+S media (1E-16E). The fungal strains analyzed are: C. albicans wild-type ATCC 26555, SC5314 and ATCC 90028, S. cerevisiae wild-type CVX12-3A and pbr1-1 mutant, and S. pombe wild-type (972h^–), pbr1-8 mutant and pbr1-6 mutant. The bold numbers in Tables 4–6 indicate the more efficient compounds. […] The weak or moderate efficacy against the C. albicans wild-type strains was observed by some substances (3E, 4Z, 5Z, 10E, 15, and 16E). The efficiency toward the S. pombe pbr1-6 mutant strain was the highest inhibitory activity, except 7E, 11E, 12 and 14E. […] As regards the other S. pombe pbr1-8 mutant strain, the antifungal activity of the tested compounds was slightly lower, but the substances with the best activity are partly identical to the best compounds mentioned with pbr1-6, (i.e., 1E, 3E, 4Z, 5Z).

Point of comparison: `Cn1cccc1/C=C1/C(=O)OCc2ccccc21` [4E], MIC 200 µg/mL (≈ 836 µM). Against it:
- Cn1cccc1/C=C1\C(=O)OCc2ccccc21 [4Z] — 4-fold lower, 50 µg/mL (≈ 209 µM)
- O=C1OCc2ccccc2/C1=C\c1ccccc1 [1E] — the same, 200 µg/mL (≈ 846 µM)
- O=C1OCc2ccccc2/C1=C\c1cccnc1 [3E] — 2-fold lower, 100 µg/mL (≈ 421 µM)
- O=C1OCc2ccccc2/C1=C\c1ccccc1Br [14E] — the same, 200 µg/mL (≈ 635 µM)

What follows are compounds tested on T1, S. cerevisiae wild-type CVX12-3A (assay: microbe, parasite or virus in culture). Conditions: Saccharomyces cerevisiae, 48 h, read-out: MIC.
T1 construct: CVX12-3A
Parameters: species or system whole yeast cells; macro tube broth dilution MIC in YEPD at 30 C, visual clearness of medium
Protocol: as §1

Point of comparison: `Cn1cccc1/C=C1\C(=O)OCc2ccccc21` [4Z], MIC 12.5 µg/mL (≈ 52.2 µM). Against it:
- Cn1cccc1/C=C1/C(=O)OCc2ccccc21 [4E] — 8-fold higher, 100 µg/mL (≈ 418 µM)
- O=C1OCc2ccccc2/C1=C\c1ccccc1 [1E] — 8-fold higher, 100 µg/mL (≈ 423 µM)
- O=C1OCc2ccccc2/C1=C\c1cccnc1 [3E] — 4-fold higher, 50 µg/mL (≈ 211 µM)
- O=C1OCc2ccccc2/C1=C\c1ccccc1Br [14E] — 2-fold higher, 25 µg/mL (≈ 79.3 µM)

These compounds were tested on T2, S. pombe wild-type 972 h- (assay: microbe, parasite or virus in culture). Conditions: Schizosaccharomyces pombe, 48 h, read-out: MIC.
T2 construct: 972 h-
Parameters: species or system whole yeast cells; macro tube broth dilution MIC in YEPD at 30 C, visual clearness of medium
Protocol: as §1

Point of comparison: `O=C1OCc2ccccc2/C1=C\c1ccccc1` [1E], MIC 25 µg/mL (≈ 106 µM). Against it:
- Cn1cccc1/C=C1\C(=O)OCc2ccccc21 [4Z] — the same, 25 µg/mL (≈ 104 µM)
- Cn1cccc1/C=C1/C(=O)OCc2ccccc21 [4E] — 2-fold higher, 50 µg/mL (≈ 209 µM)
- O=C1OCc2ccccc2/C1=C\c1cccnc1 [3E] — the same, 25 µg/mL (≈ 105 µM)
- O=C1OCc2ccccc2/C1=C\c1ccccc1Br [14E] — 2-fold higher, 50 µg/mL (≈ 159 µM)

System: C. albicans wild-type
Test: microbe, parasite or virus in culture
Parameters: species or system whole yeast cells; macro tube broth dilution MIC in YEPD at 30 C, visual clearness of medium
Conditions: Candida albicans, 48 h, read-out: MIC
Remark: another data set of the same source
Protocol: as §1

Point of comparison: `Cn1cccc1/C=C1\C(=O)OCc2ccccc21` [4Z], MIC 25 µg/mL (≈ 104 µM). Against it:
- Cn1cccc1/C=C1/C(=O)OCc2ccccc21 [4E] — 8-fold higher, 200 µg/mL (≈ 836 µM)
- O=C1OCc2ccccc2/C1=C\c1ccccc1 [1E] — 8-fold higher, 200 µg/mL (≈ 846 µM)
- O=C1OCc2ccccc2/C1=C\c1cccnc1 [3E] — 4-fold higher, 100 µg/mL (≈ 421 µM)
- O=C1OCc2ccccc2/C1=C\c1ccccc1Br [14E] — 8-fold higher, 200 µg/mL (≈ 635 µM)

These compounds were tested on T1, S. cerevisiae wild-type CVX12-3A (assay: microbe, parasite or virus in culture). Conditions: Saccharomyces cerevisiae, read-out: MIC.
Parameters: species or system whole yeast cells; micro-culture broth dilution MIC in YES at 30 C, turbidity, complete growth inhibition
Protocol: (§2) Standard YEPD (Yeast Extract, Peptone, Dextrose) ([Sherman, 1990]), YEPD+S (YEPD with 1.2M sorbitol), YES (Yeast Extract, Dextrose and Supplements of Adenine, Histidine, Leucine, Uracil and Lysine) ([Alfa et al., 1993]) and YES+S (YES with 1.2 M sorbitol) ([Ribas et al., 1991]; [Ishiguro et al., 1997]), media were used for determination of MIC values of the tested compounds. A stock solution of 10 mg/ml of each tested compounds was prepared in DMSO and serial dilutions in DMSO were prepared. The final concentration of DMSO was 2% in the YEPD medium. […] The serial dilutions of compounds were dispensed into test tubes with 1 ml of YEPD or YEPD+S to make final concentrations of 200, 100, 50, 25, 12.5, 6.26, 3.125, 1.6, 0.8 and 0.4 μg/ml. The tested yeast strains were previously grown in YEPD, YEPD+S, YES or YES+S agar plates at 30°C for 48 h. Micro-culture assays of large numbers of samples were analyzed as described) ([Martins et al., 2011]). Essentially early log-phase cells were grown in YEPD, YEPD+S, YES or YES+S (1.2 M sorbitol) medium at 30°C, and diluted to cell density of 4 X 10^6 cells/ml in YEPD, YEPD+S, YES or YES+S medium and aliquots of 100 μl were dispensed into each small test tube (3 ml test tube size). Then, another 100 μl of YEPD, YEPD+S, YES or YES+S with the corresponding dilution of each compound at 2X concentration (4% DMSO) was added. The final volume was 200 μl, with the cells diluted to of 2 X 10^6 cells/ml and each compound diluted to 1X final concentration, containing increasing concentrations of antifungal (0, 1, 2, 5, 10, 20, 50, 100 and 200 μg/ml) or an equivalent volume of solvent (2% DMSO). The cells were grown at 30°C in an orbital roller and turbidity was analyzed after 24 and 48 h of incubation. The MIC was determined as the minimal concentration of tested compound that produced complete cell growth inhibition and kept the medium clear. The MIC values were calculated from at least three independent experiments. Next, the first generation of isochromanones (1E-16E) was also screened in YES medium (Table 5) and exerted a weaker antifungal potency than in YEPD medium and also than the second family of isochromanones in YES medium (17E-30E) (Table 6). The strains are partly different from the previously mentioned ones (Tables 5, 6) analyzing two wild type C. albicans strains because they behaved similarly in YEPD. It is remarkable that there was no effect against either the C. albicans, the S. cerevisiae, or the S. pombe wild-type strains, except with 30E.

Point of comparison: `O=C1OCc2ccccc2/C1=C\c1cccnc1` [3E], MIC 200 µg/mL (≈ 843 µM). Against it:
- Cn1cccc1/C=C1\C(=O)OCc2ccccc21 [4Z] — higher, > 200 µg/mL
- Cn1cccc1/C=C1/C(=O)OCc2ccccc21 [4E] — higher, > 200 µg/mL
- O=C1OCc2ccccc2/C1=C\c1ccccc1 [1E] — higher, > 200 µg/mL
- O=C1OCc2ccccc2/C1=C\c1ccccc1Br [14E] — higher, > 200 µg/mL

Each compound was assayed on T2, S. pombe wild-type 972 h- (assay: microbe, parasite or virus in culture). Conditions: Schizosaccharomyces pombe, read-out: MIC.
Parameters: species or system whole yeast cells; micro-culture broth dilution MIC in YES at 30 C, turbidity, complete growth inhibition
Protocol: as §2

Point of comparison: `O=C1OCc2ccccc2/C1=C\c1cccnc1` [3E], MIC 200 µg/mL (≈ 843 µM). Against it:
- Cn1cccc1/C=C1\C(=O)OCc2ccccc21 [4Z] — higher, > 200 µg/mL
- Cn1cccc1/C=C1/C(=O)OCc2ccccc21 [4E] — higher, > 200 µg/mL
- O=C1OCc2ccccc2/C1=C\c1ccccc1 [1E] — higher, > 200 µg/mL
- O=C1OCc2ccccc2/C1=C\c1ccccc1Br [14E] — higher, > 200 µg/mL

What follows are compounds tested on C. albicans wild-type (assay: microbe, parasite or virus in culture). Conditions: Candida albicans, read-out: MIC.
Parameters: species or system whole yeast cells; micro-culture broth dilution MIC in YES at 30 C, turbidity, complete growth inhibition
Protocol: as §2

`Cn1cccc1/C=C1\C(=O)OCc2ccccc21` [4Z] and `Cn1cccc1/C=C1/C(=O)OCc2ccccc21` [4E] cannot be ordered by MIC: over 200 µg/mL for the first, over 200 µg/mL for the second.

`O=C1OCc2ccccc2/C1=C\c1ccccc1` [1E] and `O=C1OCc2ccccc2/C1=C\c1ccccc1Br` [14E] cannot be ordered by MIC: over 200 µg/mL for the first, over 200 µg/mL for the second.

Work on `O=C1OCc2ccccc2/C1=C\c1cccnc1` [3E] yielded an MIC of over 200 µg/mL.

System: C. albicans wild-type
Test: microbe, parasite or virus in culture
Parameters: species or system whole yeast cells; macro tube broth dilution MIC in YEPD at 30 C, visual clearness of medium
Conditions: Candida albicans, 48 h, read-out: MIC
Remark: another data set of the same source
Protocol: as §1

Point of comparison: `Cn1cccc1/C=C1/C(=O)OCc2ccccc21` [4E], MIC 200 µg/mL (≈ 836 µM). Against it:
- Cn1cccc1/C=C1\C(=O)OCc2ccccc21 [4Z] — 16-fold lower, 12.5 µg/mL (≈ 52.2 µM)
- O=C1OCc2ccccc2/C1=C\c1ccccc1 [1E] — the same, 200 µg/mL (≈ 846 µM)
- O=C1OCc2ccccc2/C1=C\c1cccnc1 [3E] — 4-fold lower, 50 µg/mL (≈ 211 µM)
- O=C1OCc2ccccc2/C1=C\c1ccccc1Br [14E] — higher, > 200 µg/mL

Source: PMC6689975, “Novel Cell Wall Antifungals Reveal a Special Synergistic Activity in pbr1 Mutants Resistant to the Glucan Synthesis Antifungals Papulacandins and Echinocandins” (Frontiers in Microbiology, 2019)
